Experiments:
[1] = molecular target: Neuronal acetylcholine receptor; alpha4/beta2 (Homo sapiens, UniProt P17787+P43681); assay: Antagonist activity at human nAChR alpha4/beta2 receptor expressed in HEK ts201 cells assessed as calcium accumulation by fluorescence analysis; type: functional, cell-based
[2] = molecular target: Neuronal acetylcholine receptor; alpha3/beta4 (Homo sapiens, UniProt P30926+P32297); assay: Antagonist activity at human nAChR alpha3/beta4 receptor expressed in HEK ts201 cells assessed as calcium accumulation by fluorescence analysis; type: functional, cell-based
Chain of Neuronal acetylcholine receptor; alpha3/beta4 (P30926 whole entry): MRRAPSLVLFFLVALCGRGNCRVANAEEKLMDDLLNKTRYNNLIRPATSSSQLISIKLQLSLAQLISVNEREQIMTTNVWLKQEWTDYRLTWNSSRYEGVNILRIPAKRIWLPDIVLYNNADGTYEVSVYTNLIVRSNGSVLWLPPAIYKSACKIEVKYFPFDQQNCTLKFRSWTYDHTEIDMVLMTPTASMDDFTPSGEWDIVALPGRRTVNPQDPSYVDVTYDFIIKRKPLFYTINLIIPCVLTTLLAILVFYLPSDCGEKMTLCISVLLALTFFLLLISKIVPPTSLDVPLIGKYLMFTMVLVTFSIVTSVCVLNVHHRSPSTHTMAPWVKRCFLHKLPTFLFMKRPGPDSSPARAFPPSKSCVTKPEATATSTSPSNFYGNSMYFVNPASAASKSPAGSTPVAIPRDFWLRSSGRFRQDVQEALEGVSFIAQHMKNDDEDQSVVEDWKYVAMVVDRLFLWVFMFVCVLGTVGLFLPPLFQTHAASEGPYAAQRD
Chain of Neuronal acetylcholine receptor; alpha3/beta4 (P32297 whole entry): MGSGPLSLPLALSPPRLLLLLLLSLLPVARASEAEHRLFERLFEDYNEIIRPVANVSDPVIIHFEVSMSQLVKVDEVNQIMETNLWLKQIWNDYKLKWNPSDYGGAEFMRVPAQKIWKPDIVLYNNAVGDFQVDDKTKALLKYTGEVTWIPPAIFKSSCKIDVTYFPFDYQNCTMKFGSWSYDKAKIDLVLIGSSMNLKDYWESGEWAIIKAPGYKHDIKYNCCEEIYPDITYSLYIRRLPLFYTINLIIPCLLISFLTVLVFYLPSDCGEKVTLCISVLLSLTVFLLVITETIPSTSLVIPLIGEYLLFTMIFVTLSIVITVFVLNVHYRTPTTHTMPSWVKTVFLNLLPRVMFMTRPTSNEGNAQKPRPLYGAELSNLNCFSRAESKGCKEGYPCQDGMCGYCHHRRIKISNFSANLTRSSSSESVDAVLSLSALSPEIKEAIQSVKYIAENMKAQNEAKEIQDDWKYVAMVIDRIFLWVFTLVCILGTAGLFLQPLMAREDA

Homo sapiens = species on record: Homo sapiens; assay: Selectivity ratio of pIC50 for human nAChR alpha3/beta4 receptor to pIC50 for human nAChR alpha4/beta2 receptor

Chain of Neuronal acetylcholine receptor; alpha4/beta2 (P17787 whole entry): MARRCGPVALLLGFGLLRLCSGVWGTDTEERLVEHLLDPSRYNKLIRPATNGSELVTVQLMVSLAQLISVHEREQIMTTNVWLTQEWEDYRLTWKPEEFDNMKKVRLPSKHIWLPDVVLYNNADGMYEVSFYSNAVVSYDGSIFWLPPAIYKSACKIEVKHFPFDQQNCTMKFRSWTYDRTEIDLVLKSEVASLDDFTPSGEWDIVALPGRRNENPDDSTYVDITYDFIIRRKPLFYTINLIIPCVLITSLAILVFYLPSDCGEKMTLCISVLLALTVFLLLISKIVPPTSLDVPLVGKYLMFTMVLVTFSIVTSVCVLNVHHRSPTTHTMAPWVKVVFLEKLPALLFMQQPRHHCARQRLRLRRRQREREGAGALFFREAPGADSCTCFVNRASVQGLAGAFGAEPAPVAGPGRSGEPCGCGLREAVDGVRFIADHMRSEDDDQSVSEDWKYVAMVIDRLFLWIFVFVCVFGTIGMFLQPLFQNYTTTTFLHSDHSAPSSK
Chain of Neuronal acetylcholine receptor; alpha4/beta2 (P43681 whole entry): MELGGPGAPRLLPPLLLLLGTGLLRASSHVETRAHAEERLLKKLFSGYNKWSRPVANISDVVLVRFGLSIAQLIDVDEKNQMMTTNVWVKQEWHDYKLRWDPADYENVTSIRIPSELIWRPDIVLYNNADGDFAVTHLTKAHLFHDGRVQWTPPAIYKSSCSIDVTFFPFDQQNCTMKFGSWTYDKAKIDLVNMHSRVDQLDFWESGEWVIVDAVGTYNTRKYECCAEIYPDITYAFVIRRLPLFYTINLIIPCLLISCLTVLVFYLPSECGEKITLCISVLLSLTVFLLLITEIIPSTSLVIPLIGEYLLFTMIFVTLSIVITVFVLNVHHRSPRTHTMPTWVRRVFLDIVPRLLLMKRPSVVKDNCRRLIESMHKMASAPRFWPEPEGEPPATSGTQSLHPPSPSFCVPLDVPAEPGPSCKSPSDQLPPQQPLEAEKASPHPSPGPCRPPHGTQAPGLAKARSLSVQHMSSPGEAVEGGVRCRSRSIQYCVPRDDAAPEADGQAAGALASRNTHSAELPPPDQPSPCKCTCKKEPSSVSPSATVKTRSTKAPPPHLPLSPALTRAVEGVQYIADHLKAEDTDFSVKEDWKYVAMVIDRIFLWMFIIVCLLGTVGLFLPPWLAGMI

Structure (SMILES)	IC50 ([1]; read-out: pIC50 (converted))	IC50 ([2]; read-out: IC50)	Ratio pIC50 (Homo sapiens)	IC50 ([1]; read-out: IC50)	IC50 ([2]; read-out: pIC50 (converted))
CC1CC(=O)N(c2ccccc2C(=O)CCC2CCCN(CCCCOc3ccc(C(F)(F)F)cc3)C2)C1=O (stereo unspecified)	7.08 µM	–	–	–	–
O=C(OCC1CCCN(CCCc2ccccc2)C1)c1ccccc1C(F)(F)F (single isomer, unassigned)	–	5.5 µM	-0.16	8 µM	–
CC(C)N1CCCC(COC(=O)c2ccccc2N2C(=O)CC(Cc3ccccc3)C2=O)C1 (stereo unspecified)	8.91 µM	–	–	–	–
O=C(OCC1CCCN(CCCc2ccccc2)C1)c1ccccc1N1C(=O)c2ccccc2C1=O (single isomer, unassigned)	5.01 µM	–	0.07	–	5.89 µM
CCN1CC(OC(=O)c2ccccc2N2C(=O)CC(C)C2=O)C2CC1C1OC(C)(C)OC21 (stereo unspecified)	12 µM	–	0.81	–	77.6 µM
O=C(OCC1CCCN(CCCc2ccccc2)C1)c1ccccc1-c1cccc2ccccc12 (stereo unspecified)	–	–	0.73	–	–
COc1ccc(OCCN2CCCC(COC(=O)c3ccccc3N3C(=O)CC(C)C3=O)C2)cc1 (stereo unspecified)	66.1 µM	–	-0.75	–	12 µM
O=C(OCC1CCCN(CCCc2ccccc2)C1)c1ccccc1Cl (single isomer, unassigned)	9.33 µM	–	0.39	–	22.9 µM
CN1CCCC(COC(=O)c2ccccc2-c2ccccc2)C1 (single isomer, unassigned)	6.92 µM	–	-0.16	–	4.79 µM
O=C(OCC1CCCN(C(=O)CCc2ccccc2)C1)c1ccccc1-c1ccccc1 (stereo unspecified)	6.03 µM	> 100 µM	1.74	5.6 µM	331 µM
C[N+]1(C)CCCC(COC(=O)c2ccccc2-c2ccccc2)C1 (single isomer, unassigned)	2.4 µM	–	0.43	–	6.46 µM
O=C(OCC1CCCN(CCc2ccccc2)C1)c1ccccc1N1C(=O)CC(Cc2ccccc2)C1=O (stereo unspecified)	4.47 µM	–	0.42	–	11.7 µM
COc1ccc(OCCCCCN2CCCC(COC(=O)c3ccccc3N3C(=O)CC(C)C3=O)C2)cc1OC (stereo unspecified)	8.32 µM	–	2.38	–	2000 µM
O=C(CCc1ccccc1)N1CCCC(CN(Cc2ccccc2-c2ccccc2)Cc2ccccc2-c2ccccc2)C1 (stereo unspecified)	20.9 µM	–	0.29	–	40.7 µM
COc1ccc(OCCCCCN2CCCC(COC(=O)c3ccccc3N3C(=O)CC(C)C3=O)C2)cc1 (stereo unspecified)	14.5 µM	–	–	–	–
CC1CC(=O)N(c2ccccc2C(=O)OCC2CCCN(CCOc3cccc4ccccc34)C2)C1=O (stereo unspecified)	3.89 µM	–	0.61	–	15.8 µM
O=C(OCc1ccccc1-c1ccccc1)C1CCCN(CCCc2ccccc2)C1 (single isomer, unassigned)	17.8 µM	–	0.24	–	10.2 µM
O=C(OCC1CCCN(CCCc2ccccc2)C1)c1ccccc1N1C(=O)CC(CCc2ccccc2)C1=O (stereo unspecified)	5.13 µM	–	0.81	–	33.1 µM
COc1cccc(OCCCCCN2CCCC(COC(=O)c3ccccc3N3C(=O)CC(C)C3=O)C2)c1OC (stereo unspecified)	8.71 µM	–	–	–	–
COc1ccccc1C(=O)OCC1CCCN(CCCc2ccccc2)C1 (single isomer, unassigned)	7.94 µM	–	0.19	–	12 µM
O=C(OCC1=CCCN(CCCc2ccccc2)C1)c1ccccc1N1C(=O)CC(Cc2ccccc2)C1=O (stereo unspecified)	5.13 µM	–	-0.14	–	3.72 µM
c1ccc(-c2ccccc2COCC2CCCNC2)cc1 (stereo unspecified)	4.17 µM	–	–	–	–
CC1CC(=O)N(c2ccccc2C(=O)OCC2CCCN(CCCCOc3ccccc3)C2)C1=O (stereo unspecified)	1.7 µM	–	–	–	–
C[C@@H]1CC(=O)N(c2ccccc2C(=O)OC[C@@H]2CCCN(CCCc3ccccc3)C2)C1=O	8.91 µM	–	0.02	–	9.55 µM
CC1CC(=O)N(c2ccccc2C(=O)OCC2CCCN(CCOc3cccc(Cl)c3)C2)C1=O (stereo unspecified)	21.9 µM	–	0.14	–	11.5 µM

Structure (SMILES)	IC50 ([1]; read-out: pIC50 (converted))	IC50 ([2]; read-out: IC50)	Ratio pIC50 (Homo sapiens)	IC50 ([1]; read-out: IC50)	IC50 ([2]; read-out: pIC50 (converted))
CC1CC(=O)N(c2ccccc2C(=O)OC[C@@H]2C[C@H](c3ccccc3)CN(CCCc3ccccc3)C2)C1=O (stereo partly specified)	5.37 µM	–	–	–	–
O=C(OCC1CCCN(CCCc2ccccc2)C1)c1ccc(-c2ccccc2)cc1 (stereo unspecified)	6.31 µM	–	0.47	–	18.6 µM
COc1ccc(CC2CC(=O)N(c3ccccc3C(=O)OCC3CCCN(CCCc4ccccc4)C3)C2=O)cc1 (stereo unspecified)	38.9 µM	–	-0.13	–	28.8 µM
O=C(OCC1CCCN(CCCc2ccccc2)C1)c1ccccc1N1C(=O)CC(Cc2ccc(Cl)cc2)C1=O (stereo unspecified)	10.7 µM	–	0.14	–	14.5 µM
CC1(C)CC(=O)N(c2ccccc2C(=O)OCC2CCCN(CCCc3ccccc3)C2)C1=O (single isomer, unassigned)	4.9 µM	–	0.01	–	5.01 µM
O=C(OC1CCCN(CCCc2ccccc2)C1)c1ccccc1-c1ccccc1 (single isomer, unassigned)	–	2.7 µM	–	6.5 µM	–
O=C(OCC1CCCN(CCCn2cc(-c3ccccc3)nn2)C1)c1ccccc1-c1ccccc1 (single isomer, unassigned)	6.46 µM	–	1.78	–	389 µM
CC1CC(=O)N(c2ccccc2C(=O)OCC2CCCN(CCCC3CCCCC3)C2)C1=O (stereo unspecified)	14.5 µM	–	-0.14	–	10.7 µM
COc1ccc(OCCCCCN2CCCC(COC(=O)c3cc(=O)c4ccccc4o3)C2)cc1 (stereo unspecified)	10.2 µM	–	–	–	–
O=C(OCC1CCCN(CCCCCOc2ccc(Cl)cc2)C1)c1ccccc1-c1ccccc1 (stereo unspecified)	14.5 µM	–	0.02	–	15.5 µM
O=C(OCC1CCCNC1)c1ccccc1-c1ccccc1 (single isomer, unassigned)	7.08 µM	–	0.06	–	8.13 µM
COc1ccc(OCCCCCN2CCCC(COC(=O)c3ccccc3-c3ccccc3)C2)cc1 (stereo unspecified)	14.5 µM	–	–	–	22.4 µM
CC(=O)Nc1ccccc1C(=O)OCC1CCCN(CCCc2ccccc2)C1 (stereo unspecified)	5.5 µM	–	-0.11	–	4.27 µM
CC1CC(=O)N(c2ccccc2C(=O)OC2CN(C(C)C)C3CC2C2OC(C)(C)OC23)C1=O (stereo unspecified)	7.59 µM	–	–	–	–
O=C(CCC1CCCNC1)c1ccccc1-c1ccccc1 (stereo unspecified)	9.12 µM	–	-0.14	–	6.61 µM
CC1CC(=O)N(c2ccccc2C(=O)OCC2CCCN(CCOc3ccc4ccccc4c3)C2)C1=O (stereo unspecified)	7.41 µM	–	-0.04	–	6.76 µM
CC1CC(=O)N(c2ccccc2C(=O)OCC2CCCN(CCCCOc3ccc(Cl)c(Cl)c3)C2)C1=O (stereo unspecified)	12.3 µM	–	0.78	–	74.1 µM
O=C(NCc1ccccc1-c1ccccc1)C1CCCN(CCCc2ccccc2)C1 (single isomer, unassigned)	16.6 µM	–	-0.06	–	14.5 µM
CC1CC(=O)N(c2ccccc2C(=O)OC2CN(CCCc3ccccc3)C3CC2C2OC(C)(C)OC23)C1=O (stereo unspecified)	–	–	–	–	30.9 µM
CC1CC(=O)N(c2ccccc2C(=O)OCC2CCCN(CCCCCOc3ccccc3)C2)C1=O (stereo unspecified)	17 µM	–	–	–	–
CC(C)N1CC(OC(=O)c2ccccc2-c2ccccc2)C2CC1C1OC(C)(C)OC21 (stereo unspecified)	9.55 µM	–	–	–	–
COc1ccc(OCCCCCN2CCCC(COC(=O)c3coc4ccccc4c3=O)C2)cc1 (stereo unspecified)	10 µM	–	–	–	–
O=C(NCC1CCCN(CCCc2ccccc2)C1)c1ccccc1-c1ccccc1 (single isomer, unassigned)	20 µM	–	3.7	–	–
CC1CC(=O)N(c2ccccc2C(=O)OCC2CCCN(CCCCCCc3ccccc3)C2)C1=O (stereo unspecified)	29.5 µM	–	–	–	–

Reference: ChEMBL document CHEMBL1949658, “3D-QSAR and 3D-QSSR models of negative allosteric modulators facilitate the design of a novel selective antagonist of human α4β2 neuronal nicotinic acetylcholine receptors” (Bioorg Med Chem Lett, 2012)
